Earlier results, collected in patent EP4106725B1, “WATER-SOLUBLE SOLID DISPERSION OF QUERCETIN, FORMS THEREOF, A METHOD OF OBTAINING THEREOF, USE OF ALKALINE AGENT, AND A KIT” ("Scientific Industrial Centre "Borshchahivskiy Chemical …, priority 2020, dated 2021).

Tests used:
[1] = crystalline dehydrated state and dihydrate

| solubility in water [1] | acidity constant value pKa1 (hydroxylic group in 4'-position) | acidity constant value pKa2 (hydroxylic group in 7-position) | Compound | pKa (acidity constant of the alkaline agent) |
| --- | --- | --- | --- | --- |
| ~ 1 mg/100 mL | 6.62 ± 0.04 | 9.7 ± 0.3 | O=c1c(O)c(-c2ccc(O)c(O)c2)oc2cc(O)cc(O)c12 [quercetin, 2-(3,4-dihydroxyphenyl)-3,5,7-trihydroxy-4H-chromen-4-one] |  |
|  |  |  | O=C([O-])[O-].[Na+].[Na+] [Na2CO3, sodium carbonate] | 10.33 |
